Experimental data from paper PMC10866072, “Design, synthesis, molecular modelling and biological evaluation of novel 6-amino-5-cyano-2-thiopyrimidine derivatives as potent anticancer agents against leukemia and apoptotic inducers” (Journal of Enzyme Inhibition and Medicinal Chemistry, 2024).

Columns and labels:
[1] = tested on: Colon cancer cell lines; test: NCI-60 five-dose, subpanel
From the text: Furthermore, the average sensitivity of all cell lines to the compound is termed as the full panel mean graph midpoints (MG-MID). The complete panel mean graph midpoints refers to the average sensitivity of all cell lines to the chemical (MG-MID). A measure of a compound’s selectivity for a given cell line is the ratio created by dividing the full panel mean graph midpoints (MG-MID) concentration by the individual subpanel MG-MID concentrations (obtained as the average sensitivity of all the cell lines in a given subpanel to the test compound).
Assessment of selectivity of a compound depends on the ratio obtained by dividing the full panel MID ^a by their individual subpanel MID ^b (µM) where MID^a is the average sensitivity of all cell lines towards the test agent (µM).

[2] = tested on: HOP-62; assay type: cell-based
[3] = tested on: MOLT-4; assay type: cell-based
[4] = tested on: NCI-H23; assay type: cell-based
[5] = tested on: HCT-116; assay type: cell-based
[6] = tested on: SNB-75; assay type: cell-based
[7] = tested on: NCI-H460; assay type: cell-based
[8] = tested on: HCC-2998; assay type: cell-based
[9] = Homo sapiens, one dose 10^-5 M, 48 h
[10] = Homo sapiens, five-dose, read-out: LC50 (the source's name)
[11] = Homo sapiens, one dose 10^-5 M, 48 h, read-out: % growth

N#Cc1c(N)nc(S)nc1-c1ccc(Cl)cc1Cl [Compound 1c, 4-Amino-6–(2,4-dichlorophenyl)-2-mercaptopyrimidine-5-carbonitrile]
GI50 ([1]; Homo sapiens, read-out: GI50 Subpanel MID^b): 10.9 µM
Selectivity ratio (full panel MID^a / subpanel MID^b, GI50 level) ([1]; colon cancer): 1.2
GI50 ([2]; Homo sapiens, five-dose): 18.2 µM
LC50 (concentration killing 50% of cells) ([2]; Homo sapiens, five-dose): 88.6 µM
% growth at 10 µM [2, 9]: 81.3%
TGI ([2]; five-dose): 40.20 µM
GI50 ([3]; Homo sapiens, five-dose): 0.7 µM
CC50 [3, 10]: > 100 µM
activity at 10 µM [3, 11]: 6.11%
TGI ([3]; five-dose): 43.90 µM
GI50 ([4]; Homo sapiens, five-dose): 13.1 µM
CC50 [4, 10]: 60.9 µM
activity at 10 µM [4, 11]: 76.1%
TGI ([4]; five-dose): 28.30 µM
GI50 ([5]; Homo sapiens, five-dose): 0.06 µM
CC50 [5, 10]: 63.6 µM
activity at 10 µM [5, 11]: -18.8%
TGI ([5]; five-dose): 17.90 µM
% growth ([5]; one dose 10^-5 M, 48 h): -18.77%
GI50 ([6]; Homo sapiens, five-dose): 4.9 µM
LC50 ([6]; Homo sapiens, five-dose): 79.9 µM
% growth at 10 µM [6, 9]: 36.5%
TGI ([6]; five-dose): 25.50 µM
GI50 ([7]; Homo sapiens, five-dose): 22.1 µM
CC50 [7, 10]: > 100 µM
activity at 10 µM [7, 11]: 82.6%
TGI ([7]; five-dose): 56.80 µM
GI50 ([8]; Homo sapiens, five-dose): 13 µM
CC50 [8, 10]: 51.5 µM
% growth at 10 µM [8, 9]: 83.3%
TGI ([8]; five-dose): 25.90 µM
